In patent publication US7026518B2 (Laila Impex, priority 2002, dated 2006):

Tests used:
[1] = Superoxide scavenging activity (NBT), McCord and Fridovich method; settings: light induced superoxide generation by riboflavin, reduction of NBT
Procedure: Antioxidant (superoxide scavenging) activity of these compounds are determined by conventional methods like McCord and Fridovich method, which is based on light induced superoxide generation by riboflavin and corresponding reduction of NBT. The assay mixture contains phosphate buffer, EDTA, NBT and riboflavin. Different concentrations of these compounds were assessed and their optical densities measured before and after illumination. The percentage value of inhibition of superoxide production by the compounds of this invention was evaluated and compared with the absorbance value of control and experimental data.

Superoxide scavenging activity (NBT) IC50 [1] | melting point | SMILES
3.0 µg/mL | 150 to 152 °C | Oc1ccc(/C=C/c2cc(O)c(O)c(O)c2)cc1O [Compound 1, 5-[(1E)-2-(3,4-dihydroxyphenyl)vinyl]-benzene1,2,3-triol]
8.1 µg/mL | 180 to 182 °C | Oc1cc(/C=C/c2cc(O)c(O)c(Br)c2)cc(O)c1O [Compound 2, 5-[(1E)-2-(5-Bromo-3,4-dihydroxyphenyl)vinyl]-benzene1,2,3-triol]
0.9 µg/mL | – | Oc1cc(/C=C/c2cc(O)c(O)c(O)c2)cc(O)c1O [Compound 3, 5-[(1E)-2-(3,4,5-trihydroxyphenyl)vinyl]-benzene1,2,3-triol]
16.0 µg/mL | – | O=C(Oc1cc(O)cc(/C=C/c2ccc(O)cc2)c1)c1cc(O)c(O)c(O)c1 [Compound 4, 5-[(1E)2-(4-hydroxyphenyl)vinyl]-3-hydroxyphenyl 3,4,5-trihydroxybenzoate]
17.5 µg/mL | – | O=C(Oc1cc(/C=C/c2ccc(O)cc2)cc(OC(=O)c2cc(O)c(O)c(O)c2)c1)c1cc(O)c(O)c(O)c1 [Compound 5, 3-[(1E)-2-(4-hydroxyphenyl)vinyl]-5-(3,4,5trihydroxyphenylcarbonyloxy)-phenyl 3,4,5-trihydroxybenzoate]
9.2 µg/mL | – | O=C(/C=C/c1ccc(O)c(O)c1)Oc1cc(O)cc(/C=C/c2ccc(O)cc2)c1 [Compound 6, 5-[(1E)-2-(4-hydroxyphenyl)vinyl]-3-hydroxyphenyl(2E)-3(3,4-dihydroxyphenyl) prop-2-enoate]
10.0 µg/mL | – | O=C(/C=C/c1cc(O)c(O)c(O)c1)Oc1cc(O)cc(/C=C/c2ccc(O)cc2)c1 [Compound 7, 5-[(1E)-2-(4-hydroxyphenyl)vinyl]-3-hydroxyphenyl(2E)3(3,4,5-trihydroxyphenyl) prop-2-enoate]
34.1 µg/mL | 92 to 94 °C | CN(C)CCOc1cc(O)cc(/C=C/c2ccc(O)cc2)c1 [Compound 8, 3-[(1E)-2-(4-hydroxyphenyl)vinyl]-5-[2-(dimethylamino)ethoxy] phenol]
29.3 µg/mL | – | Cl.NCC(=O)Oc1cc(O)cc(/C=C/c2ccc(O)cc2)c1 [Compound 9, 5-[(1E)-2-(4-hydroxyphenyl)vinyl]-3-hydroxyphenyl 2-aminoacetate hydrochloride]
